Laboratory results published in patent US20250295628A1 (priority 2022, published 2025).

Legend:
[1] = Solid stability of compositions 1-11 and compounds 1A-11A: main component content over time under different conditions (Example 37, Table 32); assay type: physicochemical
Procedure: Compositions 1-11 and compounds 1A-11A were placed at environments of −25° C., 5±3° C., 25±2° C./60±5% RH, 40±2° C./75±5% RH, 60° C. for 0 d, 5 d and 10 d (d refers to day), respectively, and changes of the main component content (the main component content of 0 day was converted to 100%) were measured, the results are shown in Table 32.

[2] = system: chronic cadmium poisoning model rabbits; assay: Cadmium-removing effect by intravenous drip in chronic cadmium poisoning rabbits (Example 18); assay type: in vivo, New Zealand rabbits; conditions: for Urine β2-microglobulin values: after four weeks of administration
Description: 205 male New Zealand rabbits, 1.8˜2.2 kg, were randomly divided into a blank control group with 25 rabbits and chronic cadmium poisoning groups with a total of 180 rabbits. The model rabbits were ear margin intravenous injected with a mixed solution containing 1.5 μmol/kg CdCl2 and 30 μmol/kg thioethanol (ME) according to weight, once/d for continuous 5 days, and observed for 35 days. After 35 days, qualified rabbits were selected according to weight, including 18 rabbits in the blank group and 162 rabbits in the poisoning group. The 162 rabbits in the poisoning group were randomly divided into a model group, D3 high-dose group, D3 low-dose group, compound 3B high-dose group, compound 3B low-dose group, composition 3 high-dose group, composition 3 low-dose group, composition 3-powder injection high-dose group, composition 3-powder injection low-dose group, with 18 rabbits in each group. Rabbits in the mode group and the blank group were administered by intravenous drip with the same volume of normal saline, with a rate of 30 drops/min for a dripping time of about 2 h, 1 time/d, 5 d/week. After administration on the last day of week 1, week 2 and week 4, the urine of 0 h˜6 h and the urine of 7 h˜24 h of rabbits were respectively collected; the content of cadmium in blood, urine and kidney, and the cadmium-removing rate from blood and kidney were determined, and the results are shown in Table 6.

[3] = 5 ± 3° C., 0 d (0 day content converted to 100%)
[4] = 25 ± 2° C./60 ± 5% RH, 0 d (0 day content converted to 100%)
[5] = 40 ± 2° C./75 ± 5% RH, 0 d (0 day content converted to 100%)
[6] = 60° C., 0 d (0 day content converted to 100%)
[7] = −25° C., 0 d (0 day content converted to 100%)
[8] = 1 w of treatment, high-dose group (D3 433, compound 3B 83.5, composition 3 and composition 3-preparation 108 mg/kg)
[9] = 1 w of treatment, low-dose group (D3 108, compound 3B 21, composition 3 and composition 3-preparation 27 mg/kg)
[10] = 2 w of treatment, high-dose group (D3 433, compound 3B 83.5, composition 3 and composition 3-preparation 108 mg/kg)
[11] = 2 w of treatment, low-dose group (D3 108, compound 3B 21, composition 3 and composition 3-preparation 27 mg/kg)
[12] = 4 w of treatment, high-dose group (D3 433, compound 3B 83.5, composition 3 and composition 3-preparation 108 mg/kg)
[13] = 4 w of treatment, low-dose group (D3 108, compound 3B 21, composition 3 and composition 3-preparation 27 mg/kg)

Row | Structure (SMILES) | main component content [1, 3] | main component content ([1]; 5 ± 3° C., 5 d) | main component content ([1]; 5 ± 3° C., 10 d) | main component content [1, 4] | main component content ([1]; 25 ± 2° C./60 ± 5% RH, 5 d) | main component content ([1]; 25 ± 2° C./60 ± 5% RH, 10 d) | main component content [1, 5] | main component content ([1]; 40 ± 2° C./75 ± 5% RH, 5 d) | main component content ([1]; 40 ± 2° C./75 ± 5% RH, 10 d) | main component content [1, 6] | main component content ([1]; 60° C., 5 d) | main component content ([1]; 60° C., 10 d) | main component content [1, 7] | main component content ([1]; −25° C., 5 d) | main component content ([1]; −25° C., 10 d) | further results
1 | O=C([O-])C(CCSCO)N(CC(O)C(O)C(O)C(O)CO)C(=S)[S][Na].[Na+] (stereo not drawn) [Compound 4A] | 100% | 97.6% | 95.3% | 100% | 92.8% | 91.7% | 100% | 83.4% | 80.8% | 100% | 68.0% | 64.7% | 100% | 100.2% | 100.5% | –
2 | O=C([O-])C(CC1CCCCC1)N(CC(O)C(O)C(O)C(O)CO)C(=S)[S][Na].[Na+] (stereo not drawn) [Compound 6A] | 100% | 98.8% | 99.1% | 100% | 93.1% | 85.3% | 100% | 91.5% | 91.0% | 100% | 60.4% | 57.8% | 100% | 100.6% | 99.9% | –
3 | CSCCC(NCC(O)C(O)C(O)C(O)CO)C(=O)[O-].[Na+] (stereo not drawn) [Compound 3B] | – | – | – | – | – | – | – | – | – | – | – | – | – | – | – | Cadmium in blood [2, 8]: 101.54 ± 13.27 µg/L; Cadmium in kidney [2, 8]: 11.94 ± 3.51 µg/L; Cadmium in blood [2, 9]: 102.21 ± 16.38 µg/L; Cadmium in kidney [2, 9]: 12.03 ± 3.84 µg/L; Cadmium in blood [2, 10]: 73.18 ± 15.27 µg/L; Cadmium in kidney [2, 10]: 12.62 ± 5.37 µg/L; Cadmium in blood [2, 11]: 72.02 ± 16.92 µg/L; Cadmium in kidney [2, 11]: 12.57 ± 3.37 µg/L; Cadmium in blood [2, 12]: 27.92 ± 14.72 µg/L; Cadmium in kidney [2, 12]: 14.02 ± 2.96 µg/L; Cadmium in blood [2, 13]: 28.53 ± 12.62 µg/L; Cadmium in kidney [2, 13]: 13.22 ± 4.20 µg/L; cadmium-removing effect (compared with the model group) ([2]; 21 and 83.5 mg/kg, 1-4 weeks): no cadmium-removing effect; Urine β2-microglobulin values ([2]; high-dose group (D3 433, compound 3B 83.5, composition 3 and composition 3-preparation 108 mg/kg)): 209.42 ± 38.21 ng/L; Urine β2-microglobulin values ([2]; low-dose group (D3 108, compound 3B 21, composition 3 and composition 3-preparation 27 mg/kg)): 213.56 ± 31.76 ng/L
4 | O=C([O-])CCC(C(=O)[O-])N(CC(O)C(O)C(O)C(O)CO)C(=S)[S][Na].[Na+].[Na+] (stereo not drawn) [Compound 5A] | 100% | 99.6% | 98.7% | 100% | 97.8% | 95.7% | 100% | 97.9% | 91.8% | 100% | 80.3% | 78.7% | 100% | 100.7% | 101.1% | –
5 | O=C([O-])C(CO)N(CC(O)C(O)C(O)C(O)CO)C(=S)[S][K].[K+] (stereo not drawn) [Compound 10A] | 100% | 99.5% | 98.1% | 100% | 97.0% | 96.1% | 100% | 92.0% | 90.3% | 100% | 82.0% | 79.1% | 100% | 100.5% | 101.4% | –
6 | O=C([O-])C(Cc1cccs1)N(CC(O)C(O)C(O)C(O)CO)C(=S)[S][Na].[Na+] (stereo not drawn) [Compound 8A] | 100% | 97.9% | 96.2% | 100% | 95.5% | 93.3% | 100% | 94.7% | 89.6% | 100% | 80.4% | 79.7% | 100% | 101.1% | 100.3% | –
7 | O=C([O-])C(Cc1cncs1)N(CC(O)C(O)C(O)C(O)CO)C(=S)[S][Na].[Na+] (stereo not drawn) [Compound 9A] | 100% | 97.2% | 96.0% | 100% | 98.9% | 96.0% | 100% | 92.6% | 91.5% | 100% | 84.5% | 79.3% | 100% | 100.7% | 100.5% | –
8 | CC(C)C(C(=O)[O-])N(CC(O)C(O)C(O)C(O)CO)C(=S)[S][Na].[Na+] (stereo not drawn) [Compound 2A] | 100% | 99.5% | 98.1% | 100% | 91.4% | 82.5% | 100% | 94.1% | 90.1% | 100% | 49.9% | 48.8% | 100% | 100.2% | 99.8% | –
9 | COc1ccc(CC(C(=O)[O-])N(CC(O)C(O)C(O)C(O)CO)C(=S)[S][Na])cc1.[Na+] (stereo not drawn) [Compound 7A] | 100% | 100.0% | 99.1% | 100% | 99.3% | 98.0% | 100% | 98.7% | 96.5% | 100% | 80.2% | 80.1% | 100% | 100.1% | 100.6% | –
10 | O=C([O-])C(CF)N(CC(O)C(O)C(O)C(O)CO)C(=S)[S][Na].[Na+] (stereo not drawn) [Compound 1A] | 100% | 99.5% | 99.1% | 100% | 97.3% | 92.1% | 100% | 83.5% | 81.5% | 100% | 59.4% | 58.7% | 100% | 100.2% | 100.1% | –
